Earlier results, collected in patent US7906154B2, “Compositions and methods for the induction and maintenance of quality sleep” (priority 2006, dated 2011).
Where two headings read alike, the source gives them in different places.

In the case of `COC1=C(OC)C(=O)C(C/C=C(\C)CC/C=C(\C)CC/C=C(\C)CC/C=C(\C)CC/C=C(\C)CC/C=C(\C)CC/C=C(\C)CC/C=C(\C)CC/C=C(\C)CCC=C(C)C)=C(C)C1=O` [CoQ10, Coenzyme Q10], the “subjects with a decrease in the sound level of their snoring” value (shortened to “subjects with a decrease”) (during non-REM sleep stages I/II) is listed as “about 40%”, the “subjects with a decrease” value (during non-REM sleep stages III/IV) is listed as “about 33%” and the “subjects with a decrease” value (during the REM stage of sleep) is listed as “about 44%”.
